Assay results: patent publication US20060079453A1, “Hla binding peptides and their uses” (priority 2002, published 2006)
Several values for one entry are separate records, joined by “and”; a condition that tells them apart may be missing. Identical values can stand only once. Like-named read-outs stand apart in the source and are kept apart here. No end group written: not given here.

Columns and labels:
Assay in all cases: biochemical
Type in all cases: binding
HLA-B*4002 = HLA-B*4002 (Homo sapiens, UniProt P01889, A65T/A93T/A95T/D138N/D201E/D98Y/E176V/E204Q/E69K/K202T/N87E/Q56L/Q94N/R180L/S48T/Y33H/Y91S)
HLA-B*4403 = HLA-B*4403 (Homo sapiens, UniProt P01889, A223V/A65T/A93T/A95T/D201E/D98Y/E176V/E187L/E204Q/E69K/G107R/H137Y/K202T/L105A/L119I/N104T/N87E/Q56L/Q94N/R106L/R155S/R180L/S101N/S121R/S35A/S48T/T118I/V36M/W191S/Y140D/Y91S)
HLA-B*1801 = HLA-B*1801 (Homo sapiens, UniProt P01889, A329T/A93T/A95T/C349S/D201E/D54G/D98Y/E176V/E187T/E204Q/E69T/K202T/Q94N/R155S/R180L/S121R/V306I/Y140S/Y195H/Y33H/Y91S)
HLA-B*4402 = HLA-B*4402 (Homo sapiens, UniProt P01889, A223V/A65T/A93T/A95T/D201E/D98Y/E176V/E187L/E204Q/E69K/G107R/H137Y/K202T/L105A/L119I/N104T/N87E/Q56L/Q94N/R106L/R155S/R180D/S101N/S121R/S35A/S48T/T118I/V36M/W191S/Y140D/Y91S)
HLA-B*4501 = HLA-B*4501 (Homo sapiens, UniProt P01889, A329T/A65T/A93T/A95T/C349S/D138N/D201E/D98Y/E176V/E187L/E204Q/E69K/H137Y/K202T/L119W/N87E/Q56L/Q94N/R155S/R180D/S121R/S35A/S48T/V127L/V306I/V36M/W191S/Y140L/Y33H/Y91S)
HLA-A*0101 = HLA-A*0101 (Homo sapiens, UniProt P04439, A114D/A174V/A182V/D101N/D185E/E176A/E190D/L180R/Q94H/R68K/S129P/T187R/V100A/V91M/W191G)
HLA-B*4001 = HLA-B*4001 (Homo sapiens, UniProt P01889, A65T/A93T/A95T/D138N/D98Y/E176V/E69K/N87E/Q56L/Q94N/R180L/S121R/S35A/S48T/T167S/V36M/W171L/Y33H/Y91S)
HLA-A*3002 = HLA-A*3002 (Homo sapiens, UniProt P04439, D101N/D140H/D185E/E176R/F33S/G80R/H175R/K168Q/Q94H/R138E/R41S/V100E)
[1] = Binding affinity to A*0101 (expressed as an IC50)
[2] = Binding affinity to A*3002 (expressed as an IC50)

Row | Molecule | IC50 (HLA-B*4002; B*4002) | IC50 (HLA-B*4403; B*4403) | IC50 (HLA-B*4402; B*4402) | IC50 (HLA-B*4501; B*4501) | IC50 (HLA-B*4403) | IC50 (HLA-B*1801) | IC50 (HLA-B*4402) | IC50 (HLA-B*4501) | further results
1 | AEMGKFKFSY | 622 nM | 28 nM | 146 nM | 283 nM | – | – | – | – | IC50 (HLA-B*1801; B*1801): 1520 nM
2 | SYQHFRIKLLL | – | – | – | – | – | – | – | – | IC50 (HLA-A*0101; read-out: Binding affinity to A*0101 (expressed as an IC50)): > 83300 nM
3 | GEFGGYGSV | 6.4 nM | 534 nM | 2340 nM | 40 nM | – | – | – | – | –
4 | RERPDNYV | – | – | – | – | – | – | – | – | IC50 (HLA-B*4002; read-out: B*4002): 62 nM; IC50 (HLA-B*4403; read-out: B*4403): > 34500 nM; IC50 (HLA-B*1801; read-out: B*1801): > 73800 nM; IC50 (HLA-B*4402; read-out: B*4402): > 67600 nM; IC50 (HLA-B*4501; read-out: B*4501): 34600 nM; IC50 (HLA-B*4001; read-out: B*4001): 71600 nM
5 | LEASISGKY | – | – | – | – | – | – | – | – | IC50 (HLA-A*3002): 87 nM; IC50 (HLA-A*0101; [1]): 57800 nM
6 | C[C@H](NC(=O)[C@H](Cc1c[nH]c2ccccc12)NC(=O)[C@H](Cc1ccc(O)cc1)NC(=O)[C@H](CC(=O)O)NC(=O)[C@H](Cc1ccc(O)cc1)NC(=O)[C@@H](NC(=O)CN)[C@@H](C)O)C(=O)NCC(=O)N[C@@H](Cc1ccc(O)cc1)C(=O)O | – | – | – | – | – | – | – | – | IC50 (HLA-A*0101; [1]): 141 nM
7 | AENLWVTVQ | – | – | – | – | 188 nM | 49600 nM | 1220 nM | 100 nM | IC50 (HLA-B*4002): 85 nM
8 | FENLWVTVY | – | – | – | – | 1310 nM | 59 nM | 4180 nM | 21400 nM | IC50 (HLA-B*4002): 1340 nM; IC50 (HLA-B*4001): 943 nM
9 | KEKGGLDGLI | 233 nM | 3630 nM | 14700 nM | 9990 nM | – | – | – | – | IC50 (HLA-B*1801; B*1801): > 22800 nM
10 | GELSYLNV | 100 nM | 23700 nM | 19000 nM | 784 nM | – | – | – | – | IC50 (HLA-B*1801; B*1801): > 24800 nM
11 | AENTWVTVY | – | – | – | – | 166 nM | 213 nM | 386 nM | 442 nM | IC50 (HLA-B*4001): 1450 nM
12 | HTDTPTLHEY | – | – | – | – | – | – | – | – | IC50 (HLA-A*3002): 54 nM; IC50 (HLA-A*0101; [1]): 20 nM and 30 nM
13 | MDIDPYKEF | 382 nM | 1950 nM | 21700 nM | 2610 nM | – | – | – | – | IC50 (HLA-B*1801; B*1801): 169000 nM; IC50 (HLA-B*4001; B*4001): 3700 nM
14 | LDKGIKPY | 468 nM | 19300 nM | > 43200 nM | 23600 nM | – | – | – | – | IC50 (HLA-B*1801; B*1801): > 100000 nM; IC50 (HLA-B*4001; B*4001): 17900 nM
15 | PENLWVTVY | – | – | – | – | > 425000 nM | 190 nM | > 167000 nM | > 49000 nM | IC50 (HLA-B*4002): > 155000 nM; IC50 (HLA-B*4001): > 72700 nM
16 | AENLWVTVC | – | – | – | – | 2270 nM | 178000 nM | 5590 nM | 146 nM | IC50 (HLA-B*4002): 1420 nM
17 | TLEGPGPGGLY | – | – | – | – | – | – | – | – | IC50 (HLA-A*3002; [2]): 40 nM; IC50 (HLA-A*0101; [1]): 11 nM
18 | LSLGPGPGFY | – | – | – | – | – | – | – | – | IC50 (HLA-A*3002; [2]): 8.2 nM; IC50 (HLA-A*0101; [1]): 21 nM
19 | AENLWVTVP | – | – | – | – | 2470 nM | 38400 nM | 7720 nM | 187 nM | IC50 (HLA-B*4002): 339 nM; IC50 (HLA-B*4001): 9710 nM
20 | AETFYVDGA | – | 6920 nM | > 21200 nM | 38 nM | – | – | – | – | IC50 (HLA-B*1801; B*1801): > 6710 nM; IC50 (HLA-B*4001; B*4001): 21600 nM
21 | AENLYVTVF | 3.1 nM | 47 nM | 39 nM | 69 nM | – | – | – | – | IC50 (HLA-B*4001; B*4001): 17 nM
22 | AENLKVTVY | – | – | – | – | 487 nM | 138 nM | 253 nM | 9620 nM | IC50 (HLA-B*4001): 7750 nM
23 | GEFPYKAAA | 3.9 nM | 2540 nM | 746 nM | 11 nM | – | – | – | – | IC50 (HLA-B*4001; B*4001): 170 nM
24 | NLALLYGEY | – | – | – | – | – | – | – | – | IC50 (HLA-A*3002; [2]): 102 nM; IC50 (HLA-A*0101; [1]): 275 nM
25 | YENLWVTVY | – | – | – | – | 369 nM | 29 nM | 640 nM | 10700 nM | IC50 (HLA-B*4002): 324 nM
26 | KEKGGLDGL | – | > 10500 nM | > 81400 nM | 9930 nM | – | – | – | – | IC50 (HLA-B*1801; B*1801): > 22800 nM; IC50 (HLA-B*4001; B*4001): 55 nM
27 | AEDLWVTVY | 3520 nM | 469 nM | 2330 nM | 1840 nM | – | – | – | – | IC50 (HLA-B*1801; B*1801): 354 nM
28 | WVYHTQGYY | – | – | – | – | – | – | – | – | IC50 (HLA-A*3002): 5.6 nM; IC50 (HLA-A*0101; [1]): 703 nM
29 | LDPYARVAI | – | – | – | – | > 39800 nM | > 24400 nM | > 41600 nM | > 49000 nM | IC50 (HLA-B*4002): 372 nM; IC50 (HLA-B*4001): > 88900 nM
